Each structure is given as a SMILES string.

The subject of one assay is NCI H460 Xenograft. Description: In-vivo anti-cancer activity, NCI H460 xenograft model. Also noted: species or system SCID mice. The note with it: NCI H460 Xenograft model, in words. The method, then: Experiments were carried out using 6-8 week old female athymic SCID (Severe Combined Immune Deficient) mice. The mice were kept in laminar flow rooms (housed in Individually Ventilated Cages) at constant temperature and humidity. They had free access to food and water. Tumors were obtained form ATCC and maintained by s.c. passages of tumor fragments (about 2×2×2 mm) in healthy mice according to standard reported procedures. Each experimental group included six/eight mice bearing bilateral tumors. Tumors were implanted on day 0, and tumor growth was followed by biweekly measurements of tumor diameters with a Vernier caliper. Tumor Volume (TV) was calculated according to the following formula: TV (mm^3)=d^2 XD/2, where d and D are the shortest diameter and the longest diameter of the tumor, respectively. The drug treatment started when tumors were just measurable (Mean TV=150-200 mm^3).
All test compound/standard drugs were delivered by gavage in a volume of 10 ml/kg. Drugs were administered every day for single time to a period of 21 days. Control mice were treated with the drug solvent/vehicle. Tumor size is measured every alternate days and body weight is recorded daily.
• a) Tumor Volume Inhibition (TVI): A TVI value higher than 80% is indicative of active compounds. • b) T/C % is also another indicator for the activity. A reproducible 20% T/C is considered as therapeutically active. • c) Log Cell Kill (LCK): A LCK value greater than 1 is indicative of active compounds. • d) Relative Tumor Volume (RTV), Tumor Delay and % Tumor volume change are also considered as valuable additional parameters for assessment. • e) Toxic effects of drug treatment were assessed by Body Weight Loss % • f) Lethal toxicity was defined as any death in treated groups occurring before any control death. Mice were inspected daily for mortality and toxic clinical signs.

A further assay concerns MDAMB-231/U 251. Description: Anti-cancer screen (MTT), MDAMB-231/U 251 cells. The note with it: MDAMB-231/U 251, 48 hours, concentrations tested 0.01-100 μM. The assay is classed as cell-based. As to the method:
(§1) Experimental drugs are screened for anti-cancer activity in three cell lines for their GI50, TGI and LC50 values (using five concentrations for each compound). The cell lines are maintained in DMEM containing 10% fetal bovine serum. 96 well micro titer plates are inoculated with cells in 100 μL for 24 hours at 37° C., 5% CO2, 95% air and 100% relative humidity. 5000 HCT116 cells/well, 5000 NCIH460 cells/well and 5000 U251 cells/well are plated. A separate plate with these cell lines is also inoculated to determine cell viability before the addition of the compounds (T0), (See Table I).
(§2) Following 24-hours incubation, experimental drugs are added to the 96 well plates. Each plate contains one of the above cell lines and the following in triplicate: five different concentrations (0.01, 0.1, 1, 10 and 100 μM) of four different compounds, appropriate dilutions of a cytotoxic standard and control (untreated) wells. Compounds are dissolved in DMSO to make 20 mM stock solutions on the day of drug addition and frozen at −20° C. Serial dilutions of these 20 mM stock solutions are made in complete growth medium such that 100 μL of these drug solutions in medium, of final concentrations equaling 0.01, 0.1, 1, 10 and 100 μM can be added to the cells in triplicate. Standard drugs whose anti-cancer activity has been well documented and which are regularly used are Doxorubicin and SAHA, (See Table I).
(§3) For T0 measurement, 24 hours after seeding the cells, 10 μL of 3-(4,5-Dimethyl-2-thiazolyl)-2,5-diphenyl-2H-tetrazolium (MTT) solution per well is added and incubation carried out for 3 hours at 37° C., 5% CO2, 95% air and 100% relative humidity, protected from light. Cells incubated with compounds for 48 hours are treated similarly except with the addition of 20 μL MTT solution per well and a subsequent incubation under the same conditions. After 3 hours of MTT incubation, well contents are aspirated carefully followed by addition of 150 μL DMSO per well. Plates are agitated to ensure solution of the formazan crystals in DMSO and absorbance read at 570 nm, (See Table I).
(§4) Percent growth is calculated for each compound's concentration relative to the control and zero measurement wells (T0; viability right before compound addition). If a test well's O.D. value is greater than the T0 measurement for that cell line % Growth=(test−zero)/(control−zero)×100

Another assay relates to HCT116 cells. The assay can be described thus: Anti-cancer screen (MTT), HCT116 cells. Particulars: Homo sapiens, HCT-116, HCT116, 48 hours, concentrations tested 0.01-100 μM. The assay is classed as cell-based. As to the method:
as §1, §2, §3, §4

Take `COc1ccc(CNC[C@H](O)COc2cccc3[nH]c4ccccc4c23)c(OC)c1` [Example 25, (2S)-1-(9H-carbazol-4-yloxy)-3-[(2,4-dimethoxybenzyl)amino]propan-2-ol]: the in-vivo anti-cancer activity result with NCI H460 Xenograft is listed as “good anti-cancer activity”. In the assay on MDAMB-231/U 251, this compound gave a GI50 of 13 µM and an IC (TGI) of 49 µM. Besides, the CC50 in the assay with MDAMB-231/U 251 (read-out: LC50 (the source's name)) was found to be 81 µM. Moreover, in the assay on HCT116 cells, growth was halved (GI50) at 5.6 µM, the IC (TGI) was 48 µM and the LC50 (concentration for 50% net cell kill relative to T0) worked out at 79 µM.

As a reminder, the GI50 is the concentration at which growth is held to half of that of the control. High values mean less potent growth inhibition, low ones more potent growth inhibition.

The record behind these values is US7786142B2, “Heterocyclic compounds as pSTAT3/IL-6 inhibitors” (Orchid Research Laboratories, Ltd., priority 2005, dated 2010).
